Reference: publication PMC6934184, “Selective DNA-PKcs inhibition extends the therapeutic index of localized radiotherapy and chemotherapy” (The Journal of Clinical Investigation, 2019)

Target: T1, PDGFRA T674I (Homo sapiens, UniProt P16234, T674I)
T1 construct: purchased Thermo Fisher Scientific (Life Technologies) SelectScreen
Test: SelectScreen Z'LYTE
Assay type: biochemical
How it was run: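 NU5455 was profiled across the SelectScreen Broad panel of kinase activity and binding assays. Z'LYTE reactions such as CSF1R ran at apparent Km ATP, while the Adapta CAMK1 assay used ATP listed as 10. Values are given as percent.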

T1 sequence (P16234 24-1089 T674I): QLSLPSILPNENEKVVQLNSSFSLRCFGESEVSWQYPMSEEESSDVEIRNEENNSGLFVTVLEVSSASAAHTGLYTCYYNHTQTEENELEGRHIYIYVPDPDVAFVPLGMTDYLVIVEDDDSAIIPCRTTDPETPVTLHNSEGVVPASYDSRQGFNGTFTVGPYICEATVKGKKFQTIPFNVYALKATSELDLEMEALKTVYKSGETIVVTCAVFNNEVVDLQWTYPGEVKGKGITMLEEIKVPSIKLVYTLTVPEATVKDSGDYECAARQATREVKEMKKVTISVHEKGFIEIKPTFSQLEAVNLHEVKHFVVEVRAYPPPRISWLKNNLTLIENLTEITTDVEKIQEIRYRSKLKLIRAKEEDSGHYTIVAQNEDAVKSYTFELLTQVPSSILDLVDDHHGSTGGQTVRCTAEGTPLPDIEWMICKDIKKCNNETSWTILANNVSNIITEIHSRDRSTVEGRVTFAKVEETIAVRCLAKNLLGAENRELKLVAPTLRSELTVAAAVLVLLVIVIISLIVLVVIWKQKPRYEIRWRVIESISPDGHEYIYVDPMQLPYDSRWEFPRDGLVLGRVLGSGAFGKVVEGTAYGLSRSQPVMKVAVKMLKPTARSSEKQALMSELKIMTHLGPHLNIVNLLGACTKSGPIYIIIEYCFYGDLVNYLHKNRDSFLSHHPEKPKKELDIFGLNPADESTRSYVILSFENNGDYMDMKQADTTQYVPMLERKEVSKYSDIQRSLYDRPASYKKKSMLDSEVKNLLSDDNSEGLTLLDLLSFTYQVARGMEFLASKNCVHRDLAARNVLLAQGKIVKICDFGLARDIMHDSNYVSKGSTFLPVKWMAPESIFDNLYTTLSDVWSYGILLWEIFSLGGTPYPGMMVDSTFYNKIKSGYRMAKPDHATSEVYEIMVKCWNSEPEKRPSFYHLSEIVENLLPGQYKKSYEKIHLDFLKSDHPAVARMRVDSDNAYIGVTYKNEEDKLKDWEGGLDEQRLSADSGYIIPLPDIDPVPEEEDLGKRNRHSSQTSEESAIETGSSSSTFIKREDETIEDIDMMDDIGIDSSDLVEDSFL

Compound: CN(C(=O)CN1CCOCC1)c1ccc2sc3c(-c4cccc5c(=O)cc(N6CC7CCC(C6)O7)oc45)cccc3c2c1 [NU5455]
- inhibition at 1 µM: -8.9%
